Assay results from patent US7648993B2, “Methods of treating disorders with Group I mGluR antagonists” (Brown University, priority 2001, dated 2010).

Tested on: hippocampal slices from mGluR5 knockout mice
Assay: DHPG-LTD of field potentials in hippocampal slices from mGluR5 knockout mice and wild-type littermates
Format: cell-based
Method: All animals were used in accordance with procedures approved by the Brown University Institutional Animal Care and Use Committee. Hippocampal slices were prepared from postnatal day 21-30 (P21-30) Long Evans rats (Charles River, Cambridge, Mass.) and mGluR5 knockout mice (Lu et al. 1997) as described previously (Huber et al. 2000). For most experiments, CA3 was removed immediately after sectioning. Slices recovered for 1-2 h at room temperature (rats) or at 30° C. (mice) in artificial cerebrospinal fluid (ACSF) containing (in mM) 124 NaCl, 5 KCl, 1.25 NaH2PO4, 26 NaHCO3, 1 MgCl2, 2 CaCl2, and 10 dextrose, saturated with 95% O2-5% CO2. For recording, slices were placed in a submersion recording chamber and perfused with 30° C. ACSF at a rate of 2 ml/min.
Baseline responses were collected every 10-30 s using a stimulation intensity (10-30 μA; 0.2 ms) yielding 50-60% of the maximal response. Experiments in which there was a>5% drift in the response magnitude during the 20-min baseline period before DHPG or LFS were excluded from further analysis. All experiments with mGluR5 KO mice used wildtype littermates as controls and were performed blind to the genotype, later determined by Therion (Troy, N.Y.). LFS consisted of 900 pulses at 1 Hz. PP-LFS consisted of 900 pairs of stimuli (50-ms interstimulus interval) delivered at 1 Hz. […]
The group data were analyzed as follows: 1) the initial slopes of the FPs and excitatory postsynaptic potentials (EPSPs), or the amplitude of the excitatory postsynaptic currents (EPSCs), for each experiment were expressed as percentages of the preconditioning or DHPG baseline average, 2) the time scale in each experiment was converted to time from the onset of conditioning or DHPG, and 3) the time-matched, normalized data were averaged across experiments and expressed in the text and figures as the means ±SE. Significant differences between groups were determined using an independent t-test or ANOVA performed on a 5-min average taken 1 h after LFS or DHPG application.

Question: With NC(C(=O)O)c1cc(O)cc(O)c1 (racemic) [DHPG, (RS)-3,5-dihydroxyphenylglycine] as the molecule, how does the “DHPG-LTD, FP % of baseline, mGluR5 heterozygous mutants” value (1 h after DHPG, mGluR5 +/−) read?
Answer: The value was 84±4%.

Question: And the “DHPG-LTD, FP % of baseline, wild-type littermate controls” value (1 h after DHPG, wild type)?
Answer: The value was 77±2%.

Question: And the “DHPG-LTD, FP % of baseline, mGluR5 homozygous mutants” value (measured 1 h after DHPG application, mGluR5 −/−)?
Answer: Its value is 98±3%.
